Tests used:
[1] = target: T1, human DP2 receptor (Homo sapiens, UniProt Q9Y5Y4); experiment: DP2/CRTH2 radioligand binding assay ([3H]PGD2); conditions: [3H]PGD2 binding, membranes of HEK293 cells expressing human DP2; read-out: hDP2
T1 construct: expressed in transfected cells
T1 sequence (Q9Y5Y4 1-395): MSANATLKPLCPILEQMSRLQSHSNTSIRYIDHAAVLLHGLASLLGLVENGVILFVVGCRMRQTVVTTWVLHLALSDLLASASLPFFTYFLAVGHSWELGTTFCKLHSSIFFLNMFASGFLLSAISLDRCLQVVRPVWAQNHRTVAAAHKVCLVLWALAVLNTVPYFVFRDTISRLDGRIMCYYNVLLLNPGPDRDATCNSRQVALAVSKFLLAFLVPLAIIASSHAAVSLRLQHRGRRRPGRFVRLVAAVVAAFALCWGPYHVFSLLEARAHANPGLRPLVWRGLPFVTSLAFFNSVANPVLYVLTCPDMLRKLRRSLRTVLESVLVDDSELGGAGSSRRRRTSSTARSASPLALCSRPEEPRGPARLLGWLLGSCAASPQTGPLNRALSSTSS
Procedure, shortened: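 Membranes from HEK293 cells stably expressing recombinant human DP2 incubated 60 min at room temperature with 1 nM [3H]PGD2 and compound in pH 7.4 Hepes/MnCl2/EDTA buffer, ± 0.2% human serum albumin. Bound radioactivity measured after filtration; non-specific binding defined with 10 μM PGD2. IC50 from titration curves.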

[2] = target: T2, human DP1 receptor (Homo sapiens, UniProt Q13258); experiment: DP1 radioligand binding assay ([3H]BWA868C, platelet membranes); conditions: [3H]BWA868C binding, human platelet membranes; read-out: hDP1
T2 construct: tissue Biological Specialty Corporation; host or cells: human platelet membranes
T2 sequence (Q13258 1-359): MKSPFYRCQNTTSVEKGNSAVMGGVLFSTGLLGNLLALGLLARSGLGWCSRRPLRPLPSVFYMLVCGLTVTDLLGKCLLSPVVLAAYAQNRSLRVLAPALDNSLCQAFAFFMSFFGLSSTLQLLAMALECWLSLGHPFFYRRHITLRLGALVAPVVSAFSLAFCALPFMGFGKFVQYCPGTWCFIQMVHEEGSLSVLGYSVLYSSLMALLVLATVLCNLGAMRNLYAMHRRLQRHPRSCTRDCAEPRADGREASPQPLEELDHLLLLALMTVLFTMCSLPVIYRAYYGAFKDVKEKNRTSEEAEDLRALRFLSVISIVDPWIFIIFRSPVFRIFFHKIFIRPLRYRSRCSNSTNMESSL
Experimental: The ability of a compound to bind to the human DPI receptor was evaluated via a radioligand membrane binding assay using the DP1 selective synthetic ligand [^311]BWA868C. Packed human platelets (Biological Specialty Corporation), were resuspended in 6 volumes of Hepes/HBSS buffer (10 mM Hepes, 1 mM DTT in Hanks Balanced Salt Solution (HBSS)), lysed and centrifuged at 75,000×g to pellet the membranes. Membranes were resuspended in Hepes/HBSS buffer to approximately 12 mg protein/ml. Membranes (20 μg protein/well) are incubated in 96-well plates with 2 nM [^3H]BWA868C and test compound in Assay Buffer (50 mM Hepes, 10 mM MnCl2, 1 mM EDTA, plus or minus 0.2% human serum albumin, pH 7.4) for 60 minutes at room temperature. The reactions are terminated by rapid filtration through Whatman GF/C glass fibre filter plates. The filter plates were pre-soaked in 0.33% polyethylenimine for 30 minutes at room temperature then washed in Wash Buffer (50 mM Hepes, 0.5 M NaCl pH 7.4) prior to harvesting. After harvesting, the filter plates are washed 3 times with 1 ml cold Wash Buffer then dried. Scintillant is then added to the plates and the radioactivity retained on the filters is determined on a Packard TopCount (Perkin Elmer). Specific binding is determined as total radioactive binding minus non-specific binding in the presence of 10 μM BW A868C. IC50s were determined using GraphPad prism analysis of drug titration curves.

| SMILES | IC50 [1] [nM] | IC50 [2] [nM] |
| --- | --- | --- |
| O=C(O)Cc1ccc(F)c(-c2ccc(C(F)(F)F)cc2CN(CC(F)(F)F)C(=O)OCc2ccccc2)c1 [Compound 1-49, (2′-{[Benzyloxycarbonyl-(2,2,2-trifluoro-ethyl)-amino]-methyl}-6-fluoro-4′-trifluoromethyl-biphenyl-3-yl)-acetic acid] | 1000 to 30000 | 1000 to 30000 |
| CCN(Cc1cc(C(F)(F)F)ccc1-c1cc(C(F)(F)C(=O)O)ccc1OC)C(C)=O [Compound 1-91, {2′-[(Acetyl-ethyl-amino)-methyl]-6-methoxy-4′-trifluoromethyl-biphenyl-3-yl}-difluoro-acetic acid] | 1000 to 30000 | 1000 to 30000 |
| CCN(Cc1cc(C(F)(F)F)ccc1-c1cc(C(C)(C)C(=O)O)ccc1OC)C(C)=O [Compound 1-115, 2-{2′-[(Acetyl-ethyl-amino)-methyl]-6-methoxy-4′-trifluoromethyl-biphenyl-3-yl}-2-methyl-propionic acid] | > 30000 | 1000 to 30000 |
| CCN(Cc1cc(C(F)(F)F)ccc1-c1ccc(C(F)(F)F)c(CC(=O)O)c1)C(=O)OCc1ccccc1 [Compound 1-124, {2′-[(Benzyloxycarbonyl-ethyl-amino)-methyl]-4,4′-bis-trifluoromethyl-biphenyl-3-yl}-acetic acid] | 300 to 1000 | 300 to 1000 |
| CCN(Cc1cc(C(F)(F)F)ccc1-c1cc(Cl)cc(CC(=O)O)c1)C(=O)C1CC1 [Compound 1-135, {5-Chloro-2′-[(cyclopropanecarbonyl-ethyl-amino)-methyl]-4′-trifluoromethyl-biphenyl-3-yl}-acetic acid] | < 300 | 1000 to 30000 |
| CCN(Cc1cc(C(F)(F)F)ccc1-c1cc(Cl)cc(CC(=O)O)c1)C(C)=O [Compound 1-137, {2′-[(Acetyl-ethyl-amino)-methyl]-5-chloro-4′-trifluoromethyl-biphenyl-3-yl}-acetic acid] | < 300 | 1000 to 30000 |
| CCN(Cc1cc(C(F)(F)F)ccc1-c1cc(CC(=O)O)cc(C(F)(F)F)c1)C(C)=O [Compound 1-138, {2′-[(Acetyl-ethyl-amino)-methyl]-5,4′-bis-trifluoromethyl-biphenyl-3-yl}-acetic acid] | < 300 | 1000 to 30000 |
| CCN(Cc1cc(C(F)(F)F)ccc1-c1cc(CC(=O)O)ccc1-c1ccccc1)C(=O)OCc1ccccc1 [Compound 1-144, {2″-[(Benzyloxycarbonyl-ethyl-amino)-methyl]-4″-trifluoromethyl-[1,1′;2′,1″]terphenyl-4′-yl}-acetic acid] | < 300 | 300 to 1000 |
| CCCN/C(=N\C#N)N(CC)Cc1cc(C(F)(F)F)ccc1-c1cc(CC(=O)O)ccc1OC [Compound 1-145, [2′-(N′-Cyano-N-ethyl-N″-propyl-guanidinomethyl)-6-methoxy-4′-trifluoromethyl-biphenyl-3-yl]-acetic acid] | < 300 | 1000 to 30000 |
| CCN(Cc1cc(C(F)(F)F)ccc1-c1cc(CC(=O)O)ccc1OC)/C(=N/C#N)NCC1CC1 [Compound 1-146, [2′-(N′-Cyano-N″-cyclopropylmethyl-N-ethyl-guanidinomethyl)-6-methoxy-4′-trifluoromethyl-biphenyl-3-yl]-acetic acid] | < 300 | 1000 to 30000 |

More lines, now with the values ahead:

| IC50 [1] [nM] | IC50 [2] [nM] | SMILES |
| --- | --- | --- |
| 1000 to 30000 | 1000 to 30000 | COc1ccc(CC(=O)O)cc1-c1ccc(C(F)(F)F)cc1CN(C(C)=O)[C@@H]1c2ccccc2C[C@@H]1O [Compound 1-15, (2′-{[Acetyl-((1R,2S)-2-hydroxy-indan-1-yl)-amino]-methyl}-6-methoxy-4′-trifluoromethyl-biphenyl-3-yl)-acetic acid] |
| 1000 to 30000 | 1000 to 30000 | COc1ccc(CC(=O)O)cc1-c1ccc(C(F)(F)F)cc1CN(C(C)=O)[C@@H]1c2ccccc2C[C@@H]1OC [Compound 1-16, (2′-{[Acetyl-((1R,2S)-2-methoxy-indan-1-yl)-amino]-methyl}-6-methoxy-4′-trifluoromethyl-biphenyl-3-yl)-acetic acid] |
| 1000 to 30000 | 1000 to 30000 | CCN(C(C)=O)C(C)c1cc(C(F)(F)F)ccc1-c1cc(CC(=O)O)ccc1OC (stereo not shown) [Compound 1-22, {2′-[1-(Acetyl-ethyl-amino)-ethyl]-6-methoxy-4′-trifluoromethyl-biphenyl-3-yl}-acetic acid] |
| 1000 to 30000 | 1000 to 30000 | COc1ccc(CC(=O)O)cc1-c1ccc(C(=O)O)cc1CN(CC(F)(F)F)C(C)=O [Compound 1-37, 2-{[Acetyl-(2,2,2-trifluoro-ethyl)-amino]-methyl}-5′-carboxymethyl-2′-methoxy-biphenyl-4-carboxylic acid] |
| 1000 to 30000 | 1000 to 30000 | COc1ccc(CC(=O)O)cc1-c1ccc(C(F)(F)F)cc1CN(CCc1ccccc1)S(C)(=O)=O [Compound 1-101, {2′-[(Methanesulfonyl-phenethyl-amino)-methyl]-6-methoxy-4′-trifluoromethyl-biphenyl-3-yl}-acetic acid] |
| 1000 to 30000 | 1000 to 30000 | COc1ccc(CC(=O)O)cc1-c1ccc(C(F)(F)F)cc1CN(C(C)=O)[C@@H](C)[C@H](O)c1ccccc1 [Compound 1-104, (2′-{[Acetyl-((1S,2R)-2-hydroxy-1-methyl-2-phenyl-ethyl)-amino]-methyl}-6-methoxy-4′-trifluoromethyl-biphenyl-3-yl)-acetic acid] |
| 300 to 1000 | 1000 to 30000 | CCN(Cc1cc(C(F)(F)F)ccc1-c1cc(C(C)(C)C(=O)O)ccc1OC)C(=O)OCc1ccccc1 [Compound 1-116, 2-{2′-[(Benzyloxycarbonyl-ethyl-amino)-methyl]-6-methoxy-4′-trifluoromethyl-biphenyl-3-yl}-2-methyl-propionic acid] |
| 1000 to 30000 | 1000 to 30000 | CCN(Cc1cc(C(F)(F)F)ccc1-c1cc(C(F)(F)C(=O)O)ccc1OC)C(=O)OCc1ccccc1 [Compound 1-132, {2′-[(Benzyloxycarbonyl-ethyl-amino)-methyl]-6-methoxy-4′-trifluoromethyl-biphenyl-3-yl}-difluoro-acetic acid] |
| < 300 | 1000 to 30000 | CCN(Cc1cc(C(F)(F)F)ccc1-c1cc(CC(=O)O)ccc1OC)C(=O)NCc1ccccn1 [Compound 1-139, [2′-(1-Ethyl-3-pyridin-2-ylmethyl-ureidomethyl)-6-methoxy-4′-trifluoromethyl-biphenyl-3-yl]-acetic acid] |
| < 300 | 1000 to 30000 | CCN(Cc1cc(C(F)(F)F)ccc1-c1cc(CC(=O)O)ccc1OC)C(=O)NCc1ccc(Cl)cc1 [Compound 1-140, {2′-[3-(4-Chloro-benzyl)-1-ethyl-ureidomethyl]-6-methoxy-4′-trifluoromethyl-biphenyl-3-yl}-acetic acid] |
| < 300 | 1000 to 30000 | CCN(Cc1cc(C(F)(F)F)ccc1-c1cc(CC(=O)O)ccc1OC)/C(=N/C#N)NCc1ccccn1 [Compound 1-147, [2′-(N′-Cyano-N-ethyl-N″-pyridin-2-ylmethyl-guanidinomethyl)-6-methoxy-4′-trifluoromethyl-biphenyl-3-yl]-acetic acid] |
| < 300 | 1000 to 30000 | CCN(Cc1cc(C(F)(F)F)ccc1-c1cc(CC(=O)O)ccc1OC)C(=O)Cn1cccn1 [Compound 1-148, (2′-{[Ethyl-(2-pyrazol-1-yl-acetyl)-amino]-methyl}-6-methoxy-4′-trifluoromethyl-biphenyl-3-yl)-acetic acid] |
| < 300 | 1000 to 30000 | CCN(Cc1cc(C(F)(F)F)ccc1-c1cc(CC(=O)O)ccc1OC)C(=O)Cn1ccnc1C [Compound 1-149, [2′-({Ethyl-[2-(2-methyl-imidazol-1-yl)-acetyl]-amino}-methyl)-6-methoxy-4′-trifluoromethyl-biphenyl-3-yl]-acetic acid] |

— US8067445B2, “N,N-disubstituted aminoalkylbiphenyl antagonists of prostaglandin D2 receptors” (Panmira Pharmaceuticals, LLC, priority 2008, dated 2011)
